Laboratory results as given in PubChem BioAssay (NCI).
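Exposure lasted 48 hours, with cells grown in 96-well plates and compounds tested at five concentrations. TGI is the concentration that stops growth completely.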

Columns and labels:
Assay in all cases: DTP human tumour cell line panel, 48 h
MOLT-4 leukemia = system: MOLT-4 leukemia
KM12 colon = system: KM12 colon
M14 melanoma = system: M14 melanoma
M19-MEL melanoma = system: M19-MEL melanoma
SNB-19 CNS = system: SNB-19 CNS
UO-31 renal = system: UO-31 renal
DLD-1 colon = system: DLD-1 colon
SK-MEL-28 melanoma = system: SK-MEL-28 melanoma
RXF 393 renal = system: RXF 393 renal
HOP-62 NSCLC = system: HOP-62 NSCLC
SN12C renal = system: SN12C renal
CAKI-1 renal = system: CAKI-1 renal
NCI-H226 lung = system: NCI-H226 lung
SNB-78 CNS = system: SNB-78 CNS
SF-295 CNS = system: SF-295 CNS
IGROV1 ovarian = system: IGROV1 ovarian
HT29 colon = system: HT29 colon
OVCAR-4 ovarian = system: OVCAR-4 ovarian
NCI-H23 lung = system: NCI-H23 lung
LXFL 529 NSCLC = system: LXFL 529 NSCLC
MALME-3M melanoma = system: MALME-3M melanoma
786-0 renal = system: 786-0 renal
SNB-75 CNS = system: SNB-75 CNS
A498 renal = system: A498 renal
U251 CNS = system: U251 CNS
EKVX NSCLC = system: EKVX NSCLC
OVCAR-8 ovarian = system: OVCAR-8 ovarian
A549 NSCLC = system: A549 NSCLC
HCT-116 colon = system: HCT-116 colon
SW-620 colon = system: SW-620 colon
HCT-15 colon = system: HCT-15 colon
SK-MEL-5 melanoma = system: SK-MEL-5 melanoma
SR leukemia = system: SR leukemia
KM20L2 colon = system: KM20L2 colon
OVCAR-5 ovarian = system: OVCAR-5 ovarian
HOP-18 NSCLC = system: HOP-18 NSCLC
HCC-2998 colon = system: HCC-2998 colon
NCI-H460 lung = system: NCI-H460 lung
COLO 205 colon = system: COLO 205 colon
UACC-257 melanoma = system: UACC-257 melanoma
NCI-H522 lung = system: NCI-H522 lung
SF-539 CNS = system: SF-539 CNS
RPMI-8226 leukemia = system: RPMI-8226 leukemia
HOP-92 NSCLC = system: HOP-92 NSCLC
SF-268 CNS = system: SF-268 CNS
UACC-62 melanoma = system: UACC-62 melanoma
SK-MEL-2 melanoma = system: SK-MEL-2 melanoma
SK-OV-3 ovarian = system: SK-OV-3 ovarian
ACHN renal = system: ACHN renal
K-562 leukemia = system: K-562 leukemia
DMS 273 small cell lung = system: DMS 273 small cell lung
TK-10 renal = system: TK-10 renal

Measured: TGI

O=[N+]([O-])c1ccc(C2=NN(c3ccccc3)C[N+](c3ccc(Br)cc3)=N2)cc1
> 100 µM: MOLT-4 leukemia | KM12 colon | M14 melanoma | M19-MEL melanoma | SNB-19 CNS | UO-31 renal | DLD-1 colon | SK-MEL-28 melanoma | HOP-62 NSCLC | SN12C renal | CAKI-1 renal | NCI-H226 lung | SNB-78 CNS | SF-295 CNS | IGROV1 ovarian | HT29 colon | OVCAR-4 ovarian | NCI-H23 lung | LXFL 529 NSCLC | MALME-3M melanoma | 786-0 renal | SNB-75 CNS | A498 renal | U251 CNS | EKVX NSCLC | OVCAR-8 ovarian | A549 NSCLC | HCT-116 colon | SW-620 colon | HCT-15 colon | SK-MEL-5 melanoma | SR leukemia | KM20L2 colon | OVCAR-5 ovarian | HOP-18 NSCLC | HCC-2998 colon | NCI-H460 lung | COLO 205 colon | UACC-257 melanoma | NCI-H522 lung | SF-539 CNS | RPMI-8226 leukemia | HOP-92 NSCLC | SF-268 CNS | UACC-62 melanoma | SK-MEL-2 melanoma | SK-OV-3 ovarian | ACHN renal | K-562 leukemia | DMS 273 small cell lung | TK-10 renal
79.8 µM: RXF 393 renal
